Results: ChEMBL document CHEMBL3639041, “Respiratory formulations and compounds for use therein” (2015)

What was measured:
[1] = target: T1, Mitogen-activated protein kinase 12 (Homo sapiens, UniProt P53778); test: (§1) Fluorescence Resonance Energy Transfer (FRET) Assay: The enzyme inhibitory activity of test compounds was determined by fluorescence resonance energy transfer (FRET) using synthetic peptides labelled with both donor and acceptor fluorophores (Z-LYTE, Invitrogen). Recombinant, phosphorylated p38 MAPK (MAPK12:Millipore) was diluted in HEPES buffer, mixed with compound at the desired final concentrations and incubated for 2 hr at RT. The FRET peptide (2 uM) and ATP (100 uM) were next added to the enzyme/compound mixture and incubated for 1 hr. Development reagent (protease) was added for 1 hr prior to detection in a fluorescence microplate reader. The site-specific protease only cleaves non-phosphorylated peptide and eliminates the FRET signal. Phosphorylation levels of each reaction were calculated using the ratio of coumarin emission (donor) over fluorescein emission (acceptor) with […].
T1 sequence (P53778 whole entry): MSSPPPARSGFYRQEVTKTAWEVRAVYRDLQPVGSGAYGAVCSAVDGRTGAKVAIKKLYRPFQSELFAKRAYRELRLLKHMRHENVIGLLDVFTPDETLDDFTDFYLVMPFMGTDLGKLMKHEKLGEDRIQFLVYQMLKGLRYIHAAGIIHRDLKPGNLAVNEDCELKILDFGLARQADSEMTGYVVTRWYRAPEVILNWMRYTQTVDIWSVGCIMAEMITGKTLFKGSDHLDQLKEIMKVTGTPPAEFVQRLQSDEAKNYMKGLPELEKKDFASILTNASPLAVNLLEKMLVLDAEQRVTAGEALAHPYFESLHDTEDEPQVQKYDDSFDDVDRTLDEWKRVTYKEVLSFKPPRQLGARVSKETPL

[2] = target: Proto-oncogene tyrosine-protein kinase Src (Homo sapiens, UniProt P12931); test: as §1
[3] = target: Tyrosine-protein kinase HCK (Homo sapiens, UniProt P08631); test: as §1

Row | IC50 [1] [nM] | IC50 [2] [nM] | IC50 [3] [nM] | Structure (SMILES)
1 | 39 | 8 | 4 | Cc1ccc(-n2nc(C(C)C)cc2NC(=O)Nc2ccc(Oc3ccnc4[nH]c(=O)cnc34)c3ccccc23)cc1
2 | 41 |  | 3 | Cc1ccc(-n2nc(C(C)(C)C)cc2NC(=O)Nc2ccc(Oc3ccnc4[nH]c(=O)cnc34)c3ccccc23)s1
3 | 89 | 6 |  | CC(C)(C)c1cc(NC(=O)Nc2ccc(Oc3ccnc4[nH]c(=O)cnc34)c3ccccc23)n(-c2ccc(Cl)c(Cl)c2)n1
